Target: Multidrug resistance protein 1a (Rattus norvegicus) (UniProt Q6PSM0)
Test: TP_TRANSPORTER: uptake (high affinity, inhibited by PSC-833, Verapamil and Cyclosporin A) in bile canalicular membrane vesicles from SD rat
Type: functional, cell membranes
Conditions: Sprague-Dawley, Bile canalicular membrane vesicle

Chain of Multidrug resistance protein 1a (Rattus norvegicus) (Q6PSM0 as listed by the source): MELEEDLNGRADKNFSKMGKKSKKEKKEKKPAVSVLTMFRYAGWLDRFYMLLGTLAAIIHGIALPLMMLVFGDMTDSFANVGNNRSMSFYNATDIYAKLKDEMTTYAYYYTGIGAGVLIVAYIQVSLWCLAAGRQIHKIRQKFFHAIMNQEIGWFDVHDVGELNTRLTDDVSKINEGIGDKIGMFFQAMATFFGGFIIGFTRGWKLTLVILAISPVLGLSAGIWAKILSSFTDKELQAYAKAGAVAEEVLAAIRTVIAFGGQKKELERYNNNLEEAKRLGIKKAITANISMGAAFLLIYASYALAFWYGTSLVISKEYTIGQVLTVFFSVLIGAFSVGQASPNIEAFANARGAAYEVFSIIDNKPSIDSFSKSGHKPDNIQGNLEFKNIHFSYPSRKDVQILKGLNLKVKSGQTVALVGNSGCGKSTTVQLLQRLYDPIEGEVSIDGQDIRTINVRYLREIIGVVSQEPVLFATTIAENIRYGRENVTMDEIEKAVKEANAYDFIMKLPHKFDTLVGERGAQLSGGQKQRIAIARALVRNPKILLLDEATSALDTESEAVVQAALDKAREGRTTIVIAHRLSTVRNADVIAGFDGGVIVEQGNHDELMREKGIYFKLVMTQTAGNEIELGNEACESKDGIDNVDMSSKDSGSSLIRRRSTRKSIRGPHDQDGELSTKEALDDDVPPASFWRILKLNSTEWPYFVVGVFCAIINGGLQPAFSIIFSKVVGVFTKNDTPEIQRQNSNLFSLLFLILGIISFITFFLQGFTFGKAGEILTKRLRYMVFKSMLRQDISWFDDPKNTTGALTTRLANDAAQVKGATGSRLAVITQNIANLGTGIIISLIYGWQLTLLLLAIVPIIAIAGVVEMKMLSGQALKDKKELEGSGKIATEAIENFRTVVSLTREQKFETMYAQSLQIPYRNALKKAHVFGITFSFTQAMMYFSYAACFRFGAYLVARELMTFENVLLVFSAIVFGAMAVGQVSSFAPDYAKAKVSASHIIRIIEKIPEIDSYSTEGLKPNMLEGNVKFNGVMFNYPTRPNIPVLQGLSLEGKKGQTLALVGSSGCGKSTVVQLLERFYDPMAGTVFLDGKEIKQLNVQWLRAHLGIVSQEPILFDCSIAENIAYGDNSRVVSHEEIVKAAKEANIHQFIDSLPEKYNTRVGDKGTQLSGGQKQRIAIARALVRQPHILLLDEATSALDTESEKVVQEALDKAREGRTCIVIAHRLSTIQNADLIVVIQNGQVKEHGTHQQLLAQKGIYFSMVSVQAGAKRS

## CCc1c2c(nc3ccc(OC(=O)N4CCC(N5CCCCC5)CC4)cc13)-c1cc([C@@](O)(CC)C(=O)O)c(CO)c(=O)n1C2
  Activity: substrate [+]

— ChEMBL document CHEMBL2074009, “Possible involvement of P-glycoprotein in biliary excretion of CPT-11 in rats” (Drug Metab Dispos, 1999)
